Measurements reported in patent publication US20080044484A1, “Use of polymeric nanoparticles for vaccine delivery” (THE REGENTS OF THE UNIVERSITY OF CALIFORNIA, priority 2004, published 2008).

Assays:
[1] = tested on: peptide-loaded MDA-MB-231 cells; experiment: Mechanisms of peptide loading: acid stripping, pronase, Brefeldin A, 51Cr-release; assay type: cell-based, human
From the text: To distinguish between loading of the peptides into the cytosol and simple binding of these peptides to the surface MHC molecules several approaches were used. First, β2-microglobulin was removed from the surface of peptide-loaded tumor cells by acid stripping. […] Second, pronase was used for complete enzymatic digestion of HLA molecules on the cell surface after loading in order to be able to detect the appearance of new internally formed HLA-peptide complexes on the cell surface, but not pulsing of the cells. Third, Brefeldin A (BFA), a metabolite of the fungus Eupenicillium brefeldianum, was used which specifically blocks protein transport from the ER to Golgi apparatus.
These experiments confirmed that the antigenic peptides were introduced into the cytosol of the cells, resulting in a prolonged and more efficient antigen presentation.

TAP (human) = TAP (human) (UniProt Q03518); experiment: cell-based or functional assay
Sequence of TAP (human) (Q03518 whole entry, chain 1 of 2): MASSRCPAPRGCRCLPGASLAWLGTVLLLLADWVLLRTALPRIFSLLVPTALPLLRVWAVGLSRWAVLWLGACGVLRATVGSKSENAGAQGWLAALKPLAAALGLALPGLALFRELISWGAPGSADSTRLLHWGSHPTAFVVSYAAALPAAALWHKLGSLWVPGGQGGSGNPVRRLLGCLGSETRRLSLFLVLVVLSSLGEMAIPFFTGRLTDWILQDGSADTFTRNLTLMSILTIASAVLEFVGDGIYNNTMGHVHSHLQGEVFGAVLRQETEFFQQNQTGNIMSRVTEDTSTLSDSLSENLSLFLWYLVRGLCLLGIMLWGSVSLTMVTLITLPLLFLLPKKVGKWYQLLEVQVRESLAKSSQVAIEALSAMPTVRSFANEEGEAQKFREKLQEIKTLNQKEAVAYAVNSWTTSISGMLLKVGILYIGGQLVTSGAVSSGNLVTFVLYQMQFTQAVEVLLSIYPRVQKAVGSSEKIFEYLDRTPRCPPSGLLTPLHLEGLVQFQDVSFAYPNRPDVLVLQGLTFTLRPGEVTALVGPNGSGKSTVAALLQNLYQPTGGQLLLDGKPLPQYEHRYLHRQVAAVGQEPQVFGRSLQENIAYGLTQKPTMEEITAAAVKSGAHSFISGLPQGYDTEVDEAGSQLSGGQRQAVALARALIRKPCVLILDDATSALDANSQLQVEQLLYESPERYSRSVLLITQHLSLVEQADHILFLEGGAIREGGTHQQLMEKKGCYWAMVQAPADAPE
Sequence of TAP (human) (Q03519 whole entry, chain 2 of 2, further chain): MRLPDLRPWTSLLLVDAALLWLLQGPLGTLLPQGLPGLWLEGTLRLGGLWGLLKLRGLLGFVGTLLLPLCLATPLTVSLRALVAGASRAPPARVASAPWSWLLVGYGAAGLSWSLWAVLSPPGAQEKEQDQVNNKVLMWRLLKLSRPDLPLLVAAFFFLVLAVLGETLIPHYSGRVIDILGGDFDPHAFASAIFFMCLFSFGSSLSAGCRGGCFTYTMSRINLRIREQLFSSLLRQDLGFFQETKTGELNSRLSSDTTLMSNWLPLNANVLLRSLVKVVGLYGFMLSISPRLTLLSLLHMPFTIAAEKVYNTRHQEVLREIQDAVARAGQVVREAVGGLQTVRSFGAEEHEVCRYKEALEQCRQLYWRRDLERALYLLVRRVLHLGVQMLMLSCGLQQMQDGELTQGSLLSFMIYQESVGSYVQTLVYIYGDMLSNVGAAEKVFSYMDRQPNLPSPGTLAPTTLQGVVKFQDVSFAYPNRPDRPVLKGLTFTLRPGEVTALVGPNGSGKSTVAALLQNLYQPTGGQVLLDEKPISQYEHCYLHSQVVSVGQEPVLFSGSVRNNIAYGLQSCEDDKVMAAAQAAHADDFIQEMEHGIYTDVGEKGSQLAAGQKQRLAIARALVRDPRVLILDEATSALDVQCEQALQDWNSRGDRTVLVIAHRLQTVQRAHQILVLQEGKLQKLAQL

T2 cells [2] = experiment: 51Cr-release assay, T2 cells loaded or pulsed with signal sequence constructs, at periods after loading; assay type: cell-based, human; details: loading into the cytosol; days 1-8 after loading
From the text: By “loading” of the fusion peptides into the cytosol of T2 cells, cancer cells and dendritic cells is meant use of a technology called “osmotic lysis of pinocytic vesicles.” T2 cells were exposed to hypertonic medium containing the peptide constructs. Pinocytic vesicles form in this medium, and because of their increased internal osmotic pressure, they break in the cytosol when the cells are placed in hypotonic culture medium.
The induction of CTL in human PBMC was monitored in a conventional ^51Cr-labeling release assay. Briefly, peptide-pulsed TAP^−/HLA-A2.1^+ human T2 cells were incubated with 10 μg of HER2/neu peptides or the MART-1 control peptide for 90 min during labeling with ^51Cr. After washing, the target cells were added to serially diluted effectors in 96-well microplates. After a 6-h incubation at 37° C., supernatants were harvested and counted in a gamma counter. Results are expressed as the percentage of specific lysis and determined as follows: [(experimental cpm−spontaneous cpm)/(maximum cpm−spontaneous cpm)]×100.
Peptide-loaded or pulsed T2 cells were tested for their ability to present HER2/neu peptides at different periods of time after loading or pulsing.

T2 cells [3] = experiment: IFNγ release by CTL (ELISA) after incubation with peptide-loaded T2 cells; assay type: cell-based, human; details: CTL elicited with the corresponding HER2/neu peptide, 20 h, 10^5 CTL/well
Experimental: In interferon gamma-release assays, 10^5 HER2/neu-specific CTL were co-incubated with 10^5 peptide-loaded T2 cells for 20 hours at 37° C. The concentrations of human interferon gamma in co-cultured supernatants were then determined by ELISA.

[4] = tested on: ICP47-transfected cells MCF7; experiment: Functional blockade of TAP by ICP47, 51Cr-release from peptide-loaded cells; assay type: cell-based, human; details: for Percent 51Cr Released From ICP47-transfected MCF7 cells loaded with the construct: CTL reactive against the corresponding HER2/neu peptide, 3 days after peptide loading, 6-hour assay
From the text: Another aspect in these studies was to determine the mechanisms of enhancement of the antigen presentation by the fusion peptides in human tumor cell lines. Therefore, a new test system was developed utilizing the Herpes Simplex virus (HSV) protein ICP47. ICP47 is a cytoplasmic protein, which interferes with antigen presentation by physically associating with TAP within the cell and inhibiting peptide transport across the ER-membrane. By transfecting the ICP47 gene into several cancer cell lines a novel system for screening different fusion peptides for TAP-independent translocation of peptide antigens through the ER-membrane was generated.
The expression of these antigens was detected by ^51Cr-release assays.

[5] = tested on: breast cancer cells MDA-MB-231; experiment: IFNγ release by CTL (ELISA) after incubation with peptide-loaded MDA-MB-231 cells; assay type: cell-based, human; details: CTL elicited with the corresponding HER2/neu peptide, 20 h, 10^5 CTL/well
Experimental: In interferon gamma release assays, 10^5 HER2/neu-specific CTL were co-incubated with 10^5 peptide-loaded tumor cells for 20 hours at 37° C. The concentration of human interferon gamma in co-cultured supernatants was then determined by ELISA.

[6] = tested on: breast cancer cells MDA-MB-231; experiment: 51Cr-release assay, MDA-MB-231 cells loaded or pulsed with signal sequence constructs; assay type: cell-based, human; details: loading; days 1-8 after loading
Experimental: ^51Cr-release assays were used to test to see if the low HER2/neu-expressing breast cancer cells MDA-MB-231 can be recognized more efficiently by the HER2/neu-specific CTL after loading with the fusion peptides.
The lysis of the tumor cells by the HER2/neu-specific CTL was monitored in a conventional ^51Cr-labeling release assay. Briefly, peptide-loaded tumor cells were added to serially diluted effectors in 96-well microplates. After a 6-h incubation at 37° C., supernatants were harvested and counted in a gamma counter. Results are expressed as the percentage of specific lysis and determined as follows: [(experimental cpm−spontaneous cpm)/(maximum cpm−spontaneous cpm)]×100.
Peptide-loaded breast cancer cells MDA-MB-231 were tested for their ability to present HER2/neu peptides at different periods of time after loading or pulsing.

HLA-A2.1 (human) = experiment: cell-based or functional assay

C[C@H]1CCC/C=C/[C@@H]2C[C@H](O)C[C@H]2[C@H](O)/C=C/C(=O)O1 [Brefeldin A]
Blocking of recognition of peptide-loaded tumor cells by HER2/neu-specific CTL [1]: specifically blocks the recognition

Herpes Simplex virus (HSV) protein ICP47 (from UniProt P03170 1-88)
Percent 51Cr released from MCF7-ICP47 (CTL369-377, E:T 20:1; 29 for untransfected MCF7) (percent 51Cr released) (TAP (human)): 3
Percent 51Cr released from MCF7-ICP47 (CTL369-377, E:T 40:1; 62 for untransfected MCF7) (percent 51Cr released) (TAP (human)): 3
Percent 51Cr released from MCF7-ICP47 (CTL654-662, E:T 20:1; 31 for untransfected MCF7) (percent 51Cr released) (TAP (human)): 2
Percent 51Cr released from MCF7-ICP47 (CTL654-662, E:T 40:1; 74 for untransfected MCF7) (percent 51Cr released) (TAP (human)): 4

M A IISAVVGIL A A A A A G (MAIISAVVGILAAAAAG) [HER654-662-IN-AF]
Recognition by CTL of T2 cells loaded with the peptide (51Cr-release) (T2 cells [2]): effective
Release of IFNγ by CTL, T2 cells loaded with the peptide (T2 cells [3]; Day 1 after peptide loading): 3321 pg/mL
Release of IFNγ by CTL, T2 cells loaded with the peptide (T2 cells [3]; Day 3 after peptide loading): 2981 pg/mL
Release of IFNγ by CTL, T2 cells loaded with the peptide (T2 cells [3]; Day 5 after peptide loading): 1892 pg/mL
Release of IFNγ by CTL, T2 cells loaded with the peptide (T2 cells [3]; Day 8 after peptide loading): 881 pg/mL
Restoration of antigen presentation in ICP47-transfected breast cancer cells ([4]; 51Cr-release): able to restore the antigen presentation
Percent 51Cr Released From ICP47-transfected MCF7 cells loaded with the construct ([4]; E:T 20:1): 22%
Percent 51Cr Released From ICP47-transfected MCF7 cells loaded with the construct ([4]; E:T 40:1): 66%
Release of IFNγ by CTL, MDA-MB-231 cells loaded with the peptide ([5]; Day 1 after peptide loading): 3321 pg/mL
Release of IFNγ by CTL, MDA-MB-231 cells loaded with the peptide ([5]; Day 3 after peptide loading): 2994 pg/mL
Release of IFNγ by CTL, MDA-MB-231 cells loaded with the peptide ([5]; Day 5 after peptide loading): 1933 pg/mL
Release of IFNγ by CTL, MDA-MB-231 cells loaded with the peptide ([5]; Day 8 after peptide loading): 899 pg/mL
Recognition by CTL of MDA-MB-231 cells loaded with the peptide (51Cr-release) [6]: effective

MA HLYQGCQVV AAAAAG (MAHLYQGCQVVAAAAAG) [HER48-56-IN-AF]
Recognition by CTL of T2 cells loaded with the peptide (51Cr-release) (T2 cells [2]): effective
Release of IFNγ by CTL, T2 cells loaded with the peptide (T2 cells [3]; Day 1 after peptide loading): 3488 pg/mL
Release of IFNγ by CTL, T2 cells loaded with the peptide (T2 cells [3]; Day 3 after peptide loading): 1229 pg/mL
Release of IFNγ by CTL, T2 cells loaded with the peptide (T2 cells [3]; Day 5 after peptide loading): 1010 pg/mL
Release of IFNγ by CTL, T2 cells loaded with the peptide (T2 cells [3]; Day 8 after peptide loading): 718 pg/mL

anti-HLA-A2 antibody BB7.2
Percent LDH released from peptide-pulsed K562-A2 +BB7.2 (CTL specific for STEAP130-138 -1F/3W/9V; 74 without antibody) (percent LDH released) (HLA-A2.1 (human)): 1
Percent LDH released from peptide-pulsed K562-A2 +BB7.2 (CTL specific for STEAP130-138 -1F; 75 without antibody) (percent LDH released) (HLA-A2.1 (human)): 2
Percent LDH released from peptide-pulsed K562-A2 +BB7.2 (CTL specific for STEAP130-138 -3W; 63 without antibody) (percent LDH released) (HLA-A2.1 (human)): 5
Percent LDH released from peptide-pulsed K562-A2 +BB7.2 (CTL specific for STEAP130-138 -9V; 53 without antibody) (percent LDH released) (HLA-A2.1 (human)): 1
Percent LDH released from peptide-pulsed K562-A2 +BB7.2 (CTL specific for STEAP130-138; 63 without antibody) (percent LDH released) (HLA-A2.1 (human)): 2
Percent LDH released from peptide-pulsed K562-A2 +BB7.2 (CTL specific for STEAP192-200; 56 without antibody) (percent LDH released) (HLA-A2.1 (human)): 7
